Measurements as given in patent US5780589A, “Ultraselective opioidmimetic peptides and pharmacological and therapeutic uses thereof” (The United States of America as represented by the …, priority 1994, dated 1998).
Entries after “also recorded” stand apart in the source; their conditions may differ. Where two headings read alike, the source gives them in different places. Non-standard residues stand in square brackets, D forms with d. Residues, ends and D or L forms follow the SMILES beside them. No end group written: not given here. Dmt = Cc1cc(O)cc(C)c1C[C@H](N)C(=O)O; Tic = O=C(O)[C@@H]1Cc2ccccc2CN1; dTic = O=C(O)[C@H]1Cc2ccccc2CN1

Legend:
δ receptors = δ receptors (Mus musculus, UniProt P32300); settings: for antagonist properties in MVD bioassay: in vitro mouse vas deferens
Chain of δ receptors (P32300 whole entry): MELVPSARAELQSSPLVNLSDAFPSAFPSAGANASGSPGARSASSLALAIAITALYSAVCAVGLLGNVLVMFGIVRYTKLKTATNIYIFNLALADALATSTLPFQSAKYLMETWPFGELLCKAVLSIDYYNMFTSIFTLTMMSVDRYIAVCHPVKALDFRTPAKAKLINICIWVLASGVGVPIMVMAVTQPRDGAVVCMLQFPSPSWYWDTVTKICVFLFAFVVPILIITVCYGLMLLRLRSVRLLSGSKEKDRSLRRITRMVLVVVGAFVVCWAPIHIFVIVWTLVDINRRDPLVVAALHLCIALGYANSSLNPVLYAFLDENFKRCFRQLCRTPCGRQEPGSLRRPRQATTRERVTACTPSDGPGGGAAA
Protocol: (§1) The in vitro pharmacological assays were undertaken using published methods (32) based on the organ bath technique of Kosterlitz and Watt (50). For μ receptors, a 2-3 cm segment of guinea-pig ileum (GPI) mounted in a 20 mL organ bath and for δ receptors, a single mouse vas deferens (MVD) was obtained from a mature animal.

μ receptors = μ receptors (Cavia porcellus, UniProt P97266); assay: Guinea-pig ileum (GPI) bioassay, electrically stimulated contractions
Chain of μ receptors (P97266 whole entry, looked up): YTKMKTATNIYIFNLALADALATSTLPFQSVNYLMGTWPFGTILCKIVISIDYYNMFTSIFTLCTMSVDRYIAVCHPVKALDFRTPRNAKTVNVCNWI
Protocol: as §1

μ receptor [1] = target: T1, μ receptor (Rattus norvegicus, UniProt P33535); assay: μ receptor binding, rat membrane synaptosomes, [3H]DAGO; settings: rat synaptosomes (P2), mean ± SEM
T1 construct: Rat membrane synaptosome preparations (P2 fraction) were prepared as detailed previously; from tissue; host or cells: rat synaptosomal membranes (P2 fraction)
T1 sequence (P33535 whole entry): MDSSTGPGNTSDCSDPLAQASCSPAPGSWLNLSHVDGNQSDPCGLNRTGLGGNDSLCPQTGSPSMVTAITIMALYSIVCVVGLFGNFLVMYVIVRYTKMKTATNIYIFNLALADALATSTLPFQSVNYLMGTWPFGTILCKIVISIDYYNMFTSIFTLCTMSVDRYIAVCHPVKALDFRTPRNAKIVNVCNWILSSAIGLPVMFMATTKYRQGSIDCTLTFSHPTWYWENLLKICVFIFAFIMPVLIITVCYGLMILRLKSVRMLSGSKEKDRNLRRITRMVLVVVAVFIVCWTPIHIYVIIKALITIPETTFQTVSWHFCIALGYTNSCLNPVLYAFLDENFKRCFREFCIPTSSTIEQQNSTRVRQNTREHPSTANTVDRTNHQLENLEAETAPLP
Protocol: (§2) Rat membrane synaptosome preparations (P2 fraction) were prepared as detailed previously, which included a preincubation step to reduce the presence of endogenous ligands and binding of G proteins (33,40). […] Samples were rapidly filtered through wetted glass fiber filters and thoroughly washed with 6 mL (3×2 mL) ice-cold 50 mM Tris-HCl, pH 7.5, containing 0.01-0.1% chicken egg albumin or bovine serum albumin. […] The filters were dried at 70° C. and the radioactivity determined after an overnight incubation period in CytoScint to maximize the radioactivity detected and reduce variability between samples. The IC50 values were converted to affinity constants (Ki) according to Cheng and Prusoff (48).

mice = assay: Tail flick test (TFT), analgesia and morphine antagonism in mice; assay type: in vivo, CD-1 mice
Protocol: Animal procedures were conducted under protocols approved by the Animal Use and Care Committee, NIEHS, an AALAC accredited facility. Tail flick test (TFT) used a radiant heat source on the tail of Fisher 344 rats or CD-1 mice (52). The response was standardized by the subcutaneous (sc) injection of 5 mg morphine sulfate/kilogram (Kg) body weight or 0.1-0.25 mg morphine/Kg body weight by iv injection; peptides were injected in 100 μL volume in sterile saline. […] Intrathecal injection of peptides in mice used the method of Hylden and Wilcox (53). A base-line and cut-off 10 sec were determined in the TFT with naive and morphine-dosed animals, respectively,to prevent damage to the tail. 1 μg to 10 mg per kilogram of animal was used for iv, icv or sc; higher doses in the mg range were used for sc injection.

δ receptor = target: T2, δ receptor (Rattus norvegicus, UniProt P33533); assay: Multi-site (one- vs two-site) δ receptor binding analysis; settings: for δ receptor binding model fitted: one-site vs two-site; for Percent low-affinity sites: two-site δ receptor fit; for Ki: Prism fit
T2 construct: Rat membrane synaptosome preparations (P2 fraction) were prepared as detailed previously; from tissue; host or cells: rat synaptosomal membranes (P2 fraction)
T2 sequence (P33533 whole entry): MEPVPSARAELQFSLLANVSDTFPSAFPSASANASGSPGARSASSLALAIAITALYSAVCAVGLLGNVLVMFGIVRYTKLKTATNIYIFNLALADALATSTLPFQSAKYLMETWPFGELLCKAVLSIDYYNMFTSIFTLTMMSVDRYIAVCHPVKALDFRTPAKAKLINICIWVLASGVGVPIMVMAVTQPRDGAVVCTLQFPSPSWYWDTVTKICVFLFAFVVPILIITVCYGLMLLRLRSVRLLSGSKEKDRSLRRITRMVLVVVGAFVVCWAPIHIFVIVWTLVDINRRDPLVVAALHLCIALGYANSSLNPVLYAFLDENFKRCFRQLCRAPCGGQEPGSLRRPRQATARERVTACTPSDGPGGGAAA
Protocol: as §2
Multi-site binding analyses, based on stringent statistical methods, were performed as described in Bryant et al. (41) and Attila et al. (49). Receptor assays were conducted in triplicate with 25-35 graded concentrations of peptide; the resulting curves were both individually assessed and combined from several distinct assays, and analyzed using Prism™ (v. 1.02, GraphPad, San Diego, Calif.).

δ opioid receptor [2] = target: T3, δ opioid receptor (Rattus norvegicus, UniProt P33533); assay: δ receptor binding, rat membrane synaptosomes, [3H]DPDPE; settings: for Ki: [3H]DPDPE, rat synaptosomes (P2), mean ± SEM; for μ/δ (receptor selectivity): ratio Ki μ / Ki δ; for selectivity change on D-Tic substitution: δ→μ
T3 construct: Rat membrane synaptosome preparations (P2 fraction) were prepared as detailed previously; from tissue; host or cells: rat synaptosomal membranes (P2 fraction)
T3 sequence (P33533 whole entry): as above
Protocol: as §2

δ opioid receptor [3] = target: T3, δ opioid receptor; settings: data from Temussi et al. (39), cited from earlier work; for Ki: [3H]DPDPE; for μ/δ (receptor selectivity): ratio Ki μ / Ki δ
μ receptor [4] = target: T1, μ receptor; settings: [3H]DAGO; data from Temussi et al. (39); cited from earlier work
[5] = concentration equivalent of pA2, against deltorphin C
[6] = high affinity δ site, read-out: Ki (nM) High
[7] = low affinity δ site, read-out: Ki (nM) Low
[8] = guinea-pig ileum, read-out: GPI IC50

Oc1ccc2c3c1O[C@H]1c4[nH]c5ccccc5c4C[C@@]4(O)[C@@H](C2)N(CC2CC2)CC[C@]314 [Naltrindole, naltrindole, reference compound]
MVD pA2 (δ receptors; antagonism against deltorphin C as the agonist): 9.2 | MVD (δ receptors; [5]): 0.7 nM | GPI nM (with pA2) (μ receptors; guinea-pig ileum): 53 nM | GPI pA2 (μ receptors; guinea-pig ileum): 7.3

Cc1cc(O)cc(C)c1C[C@H](N)C(=O)N1Cc2ccccc2C[C@H]1C(=O)O [Peptide 1, Dmt-Tic-OH] (H-[Dmt]-[Tic]-OH; N-terminus assumed)
Kb (δ receptors): 6.31 nM | MVD (δ receptors; [5]): 5.7 nM | antagonist properties in MVD bioassay (δ receptors): antagonist properties | Ki (μ receptor [1]): 3320 nM | analgesia in tail flick test (mice; iv, 100 ug/mouse where stated): no demonstratable analgesia; also recorded: no demonstrable analgesia | block of the effect of morphine in tail flick test (mice; morphine injected iv (0.25 mg/kg), peptide 100 ug/mouse iv): completely blocked | δ receptor binding model fitted (δ receptor): one-site binding model | Percent low-affinity sites (δ receptor): 30.7 ± 91.5%

Cc1cc(O)cc(C)c1C[C@H](N)C(=O)N1Cc2ccccc2C[C@H]1C(N)=O [Peptide 2, Dmt-Tic-NH2] (H-[Dmt]-[Tic]-NH2; N-terminus assumed)
Kb (δ receptors): 63.1 nM | MVD (δ receptors; [5]): 4.2 nM | antagonist properties in MVD bioassay (δ receptors): antagonist properties | IC50 (μ receptors): > 10000 nM | Ki (δ opioid receptor [2]): 1.22 ± 0.09 nM | Ki (δ receptor; [6]): 1.06 nM | δ receptor binding model fitted (δ receptor): one-site binding model | Percent low-affinity sites (δ receptor): 6.2 ± 40.1%

Cc1cc(O)cc(C)c1C[C@H](N)C(=O)N1Cc2ccccc2C[C@@H]1C(=O)O [Peptide 3, Dmt-D-Tic-OH] (H-[Dmt]-[dTic]-OH; N-terminus assumed)
Ki (μ receptor [1]): 224 ± 25.6 nM

Cc1cc(O)cc(C)c1C[C@H](N)C(=O)N1Cc2ccccc2C[C@@H]1C(N)=O [Peptide 4, Dmt-D-Tic-NH2] (H-[Dmt]-[dTic]-NH2; N-terminus assumed)
Ki (δ opioid receptor [2]): 56.9 ± 2.9 nM

Cc1cc(O)cc(C)c1C[C@H](N)C(=O)N1Cc2ccccc2C[C@H]1CO [Peptide 5, Dmt-Tic--CH2 OH]
Kb (δ receptors): 100 nM | MVD (δ receptors; [5]): 6.6 nM | antagonist properties in MVD bioassay (δ receptors): antagonist properties | Ki (μ receptor [1]): 151 ± 16.3 nM | IC50 (μ receptors): > 10000 nM | Ki (δ opioid receptor [2]): 0.44 ± 0.14 nM | μ/δ (receptor selectivity) (δ opioid receptor [2]): 344 | Ki (δ receptor; [6]): 0.13 nM | Ki (δ receptor; [7]): 5.2 nM | δ receptor binding model fitted (δ receptor): two-site model | Percent low-affinity sites (δ receptor): 20.9 ± 5.3%

Cc1cc(O)cc(C)c1C[C@@H]1NC(=O)[C@@H]2Cc3ccccc3CN2C1=O [Peptide 6, c(Dmt-Tic)]
Kb (δ receptors): 3720 nM | MVD nM (δ receptors; [5]): 3,800 nM | antagonist properties in MVD bioassay (δ receptors): antagonist properties | Ki (μ receptor [1]): 635 ± 69.3 nM | IC50 (μ receptors): 20000 ± 2000 nM | μ/δ (receptor selectivity) (δ opioid receptor [2]): 66 | fold higher δ affinity relative to Tyr-Tic cognate (δ opioid receptor [2]; vs Tyr-Tic-OH (peptide 12) or c(Tyr-Tic) (peptide 17)): 4,000 fold | Ki (δ receptor; [6]): 0.09 nM | Ki (δ receptor; [7]): 9.4 nM | δ receptor binding model fitted (δ receptor): two-site model | Percent low-affinity sites (δ receptor): 86.8 ± 3.9%

Cc1cc(O)cc(C)c1C[C@@H]1NC(=O)[C@H]2Cc3ccccc3CN2C1=O [Peptide 7, c(Dmt-D-Tic)]
Ki (μ receptor [1]): 728 ± 72.9 nM | Ki (δ opioid receptor [2]): 499 ± 117 nM | μ/δ (receptor selectivity) (δ opioid receptor [2]): 1.5

Cc1cc(O)cc(C)c1C[C@H](N)C(=O)N1Cc2ccccc2C[C@H]1C(=O)N[C@@H](C)C(=O)O [Peptide 8, Dmt-Tic-Ala-OH] (H-[Dmt]-[Tic]-Ala-OH)
Kb (δ receptors): 3.98 nM | Ki (μ receptor [1]): 5810 nM | IC50 (μ receptors; [8]): > 10000 nM | Ki (δ opioid receptor [2]): 0.285 ± 0.03 nM | μ/δ (receptor selectivity) (δ opioid receptor [2]): 20,396 | Ki (δ receptor; [6]): 0.12 nM | Ki (δ receptor; [7]): 4.8 nM

Cc1cc(O)cc(C)c1C[C@H](N)C(=O)N1Cc2ccccc2C[C@H]1C(=O)N[C@@H](C)C(N)=O [Peptide 9, Dmt-Tic-Ala-NH2] (H-[Dmt]-[Tic]-Ala-NH2)
IC50 (μ receptors; [8]): 4740 ± 900 nM | μ/δ (receptor selectivity) (δ opioid receptor [2]): 195 | Ki (δ receptor; [6]): 0.18 nM | Ki (δ receptor; [7]): 10.7 nM

Cc1cc(O)cc(C)c1C[C@H](N)C(=O)N1Cc2ccccc2C[C@@H]1C(=O)N[C@@H](C)C(=O)O [Peptide 10, Dmt-D-Tic-Ala-OH] (H-[Dmt]-[dTic]-Ala-OH)
Ki (μ receptor [1]): 82.8 ± 2 nM | Ki (δ opioid receptor [2]): 88.7 ± 13.8 nM | μ/δ (receptor selectivity) (δ opioid receptor [2]): 0.93

Cc1cc(O)cc(C)c1C[C@H](N)C(=O)N1Cc2ccccc2C[C@@H]1C(=O)N[C@@H](C)C(N)=O [Peptide 11, Dmt-D-Tic-Ala-NH2] (H-[Dmt]-[dTic]-Ala-NH2)
Ki (μ receptor [1]): 5.8 ± 0.85 nM | Ki (δ opioid receptor [2]): 46.4 ± 2.7 nM | μ/δ (receptor selectivity) (δ opioid receptor [2]): 0.13

N[C@@H](Cc1ccc(O)cc1)C(=O)N1Cc2ccccc2C[C@H]1C(=O)O [Peptide 12, Tyr-Tic-OH, reference compound] (H-Tyr-[Tic]-OH)
μ/δ (receptor selectivity) (δ opioid receptor [2]): 148

N[C@@H](Cc1ccc(O)cc1)C(=O)N1Cc2ccccc2C[C@@H]1C(=O)O [Peptide 14, Tyr-D-Tic-OH, reference compound] (H-Tyr-[dTic]-OH)
Ki (μ receptor [1]): 26300 nM | Ki (δ opioid receptor [2]): 9050 nM | μ/δ (receptor selectivity) (δ opioid receptor [2]): 2.9

NC(=O)[C@H]1Cc2ccccc2CN1C(=O)[C@@H](N)Cc1ccc(O)cc1 [Peptide 15, Tyr-D-Tic-NH2] (H-Tyr-[dTic]-NH2)
Ki (δ opioid receptor [3]): 5960 nM | μ/δ (receptor selectivity) (δ opioid receptor [3]): 0.53 | selectivity change on D-Tic substitution (δ opioid receptor [2]): reversal of selectivity | Ki (μ receptor [4]): 3130 nM

N[C@@H](Cc1ccc(O)cc1)C(=O)N1Cc2ccccc2C[C@H]1CO [Peptide 16, Tyr-Tic-CH2 OH, reference compound]
Ki (μ receptor [1]): 11000 nM | Ki (δ opioid receptor [2]): 128 ± 34.7 nM | μ/δ (receptor selectivity) (δ opioid receptor [2]): 86

O=C1N[C@@H](Cc2ccc(O)cc2)C(=O)N2Cc3ccccc3C[C@@H]12 [Peptide 17, c(Tyr-Tic), reference compound]
Ki (μ receptor [1]): 51500 nM | Ki (δ opioid receptor [2]): 41800 nM | μ/δ (receptor selectivity) (δ opioid receptor [2]): 1.2

O=C1N[C@@H](Cc2ccc(O)cc2)C(=O)N2Cc3ccccc3C[C@H]12 [Peptide 18, c(Tyr-D-Tic), reference compound]
Ki (μ receptor [1]): 128000 nM | Ki (δ opioid receptor [2]): 8910 nM | μ/δ (receptor selectivity) (δ opioid receptor [2]): 14

C[C@H](NC(=O)[C@H]1Cc2ccccc2CN1C(=O)[C@@H](N)Cc1ccc(O)cc1)C(=O)O [Peptide 21, Tyr-D-Tic-Ala-OH, reference compound] (H-Tyr-[dTic]-Ala-OH)
Ki (μ receptor [1]): 14000 nM | Ki (δ opioid receptor [2]): 2350 nM | μ/δ (receptor selectivity) (δ opioid receptor [2]): 6

C[C@H](NC(=O)[C@H]1Cc2ccccc2CN1C(=O)[C@@H](N)Cc1ccc(O)cc1)C(N)=O [Peptide 22, Tyr-D-Tic-Ala-NH2] (H-Tyr-[dTic]-Ala-NH2)
Ki (δ opioid receptor [3]): 21100 nM | μ/δ (receptor selectivity) (δ opioid receptor [3]): 0.39 | selectivity change on D-Tic substitution (δ opioid receptor [2]): reversal of selectivity | Ki (μ receptor [4]): 8150 nM

Tyr-Tic-NH2 [Peptide 13]
Ki (δ opioid receptor [3]): 166 ± 48.1 nM | μ/δ (receptor selectivity) (δ opioid receptor [3]): 173 | Ki (μ receptor [4]): 28700 nM

Tyr-[Tic]-Ala-NH2 [Peptide 20]
Ki (δ opioid receptor [3]): 55.5 ± 13.7 nM | μ/δ (receptor selectivity) (δ opioid receptor [3]): 610 | Ki (μ receptor [4]): 33800 nM

Tyr-[Tic]-Ala-OH [Peptide 19]
Ki (δ opioid receptor [3]): 56.1 ± 10.3 nM | μ/δ (receptor selectivity) (δ opioid receptor [3]): 148 | Ki (μ receptor [4]): 8290 nM
